Entries after “also recorded” stand apart in the source; their conditions may differ.
Assays:
HeLa = test: Planar measurement in cancer-bearing mice; settings: 2.5 MBq tail vein, 60 minutes measurement; for accumulation in the tumor site (planar imaging): PPIS-4800; for accumulation in the normal tissues (planar imaging): compared with tumor site
Description: Measurement was performed (1 minute×60 frames) for 60 minutes immediately after the compound administration by use of a planar imaging system (PPIS-4800 manufactured by Hamamatsu Photonics K. K.) and indicated by images each comprising 10 frames integrated.

[1] = system: Human cervical cancer HeLa cells (cell strain: 15S3D); test: Measurement of organ distribution in cancer-bearing mice; settings: 1 hour after administration; for accumulation in the tumor, SUV (organ)/SUV (blood) / accumulation in the normal tissues, SUV (organ)/SUV (blood) / SUV (organ: tumor)/SUV (blood), D-form compared with L-form: HeLa-transplanted nude mice, tail vein; for accumulation in the tumor, SUV (organ)/SUV (blood): 10 MBq (11C) or 1 MBq (18F), gamma counter; for specificity of accumulation to tumor: from SUV (organ)/SUV (blood) of the organs; for ratio of accumulation to the pancreas to accumulation to the tumor indicated by SUV (organ)/SUV (blood): D-form compared with L-form
Description: Human cervical cancer HeLa cells (cell strain: 15S3D) were subcutaneously transplanted at 5×10^6 cells/mouse to the thighs of 7-week-old nude mice (BALB/cA Jcl-nu, Clea Japan, Inc). […] After 1 hour of the administration, the mice were decapitated to collect each organ (blood, heart, lung, liver, kidney, spleen, muscle, bone, small intestine, gastrointestinal tract, pancreas, brain, and tumor). The radioactivity of each organ was measured with an automatic gamma counter, and the weight of each organ was measured. SUV (standardized uptake value) that served as an index of the accumulating amounts of the administered compounds was determined. Furthermore, to correct the accumulating amounts, SUV (organ)/SUV (blood) was determined by dividing the SUV of each organ by the SUV of blood.

[2] = system: HeLa-K (cell strain: 15S3D) and HeLa-B (JCRB9004); test: Relationship between tumor proliferation rate and degree of accumulation of labeled compound for positron imaging; type: in vivo, nude mice (BALB/cA Jcl-nu)
Excerpt: HeLa-K (cell strain: 15S3D) and HeLa-B (Health Science Research Resources Bank: JCRB9004) were subcutaneously transplanted at 5×10^6 cells/mouse and 2×10^7 cells/mouse, respectively, to the thighs of female BALB/cA Jcl-nu nude mice (HeLa-K: 7-week-old mice, HeLa-B: 5-week-old mice). The HeLa-K- and HeLa-B-transplanted mice, when becoming 9 week old after 2 weeks and 4 weeks of the transplantation, respectively, were used in the experiment. To examine the relationship between the accumulation of each labeled compound in the cancer-bearing mice and the proliferation rate of the tumor tissue, tumor size was daily measured. Doubling time (DT) was calculated according to the calculation formula: DT=t×log2 (V1/V0) proposed by Schwartz, wherein t denotes the number of days required for the tumor volume to reach V1 (mm^3) from V0 (mm^3), and the volume (mm^3) was calculated according to ½×length (mm)×width^2 (mm^2) from the major axis of the tumor. FIG. 7 is a graph showing the relationship between the number of days elapsed after HeLa transplantation and tumor volumes. […] The doubling times of HeLa-K and HeLa-B calculated from FIG. 7 were 4.4 days and 11.0 days, respectively.
The HeLa-K- and HeLa-B-transplanted nude mice were administered through the tail veins with [^18F]FDG, [^11C]choline, [^18F]FLT, L- and D-[^11C]Met, and L- and D-[^11C]MT at 1 MBq ([^18F]FDG and [^18F]FLT) or 10 MBq ([^11C]choline, L- and D-[^11C]Met, and L- and D-[^11C]MT). […] The radioactivities of the blood and tumor were measured with an automatic gamma counter, their weights were measured, and SUV was determined.
HeLa-K- and HeLa-B-transplanted nude mice were administered through the tail veins with L- and D-[^11C]ET, L- and D-[^18F]FMT, L-and D-[^18F]FET, and L- and D-[^18F]FPT at 10 MBq (L- and D-[^11C]ET) or 1 MBq (the others). […] The radioactivities of the blood and tumor were measured with an automatic gamma counter, their weights were measured, and SUV was determined.

tumor tissues = settings: in vivo; cited from earlier work
cancer cells = settings: cited from earlier work
[3] = HeLa-K versus HeLa-B tumors, SUV (organ)/SUV (blood), 1 hour after administration

Row | Compound | accumulation in the tumor site (planar imaging) (HeLa) | accumulation in the tumor, SUV (organ)/SUV (blood) [1] | accumulation in the normal tissues, SUV (organ)/SUV (blood) [1] | specificity of accumulation to tumor [1] | ratio of accumulation to the pancreas to accumulation to the tumor indicated by SUV (organ)/SUV (blood) [1] | also measured
1 | [11CH3]Oc1ccc(C[C@H](N)C(=O)O)cc1 [L-[^11C]MT, O—[^11C]methyl-L-tyrosine, reference compound] | observed in the tumor site | observed in the tumor | low in the normal tissues except for the pancreas | specific to the tumor |  | 
2 | [^18F]-2-fluoro-2-deoxy-D-glucose [[^18F]FDG, reference compound] |  |  |  |  |  | difference in the degree of accumulation depending on the difference in proliferation rate ([2]; mouse, in vivo): not detected
3 | N[C@H](Cc1ccc(OCCC[18F])cc1)C(=O)O [D-[^18F]FPT, O—[^18F]fluoropropyl-D-tyrosine] |  | observed in the tumor | low in the normal tissues except for the pancreas and bone | specific to the tumor | lower in the D-form than in the L-form | 
4 | C[11CH2]Oc1ccc(C[C@H](N)C(=O)O)cc1 [L-[^11C]ET, O—[^11C]Ethyl-L-tyrosine, reference compound] |  | observed in the tumor | low in the normal tissues except for the pancreas | specific to the tumor |  | 
5 | [11CH3]SCC[C@@H](N)C(=O)O [D-[^11C]Met, reference compound] | observed in the tumor site | observed in the tumor | also high in the normal tissues | low specificity to tumor |  | accumulation in the normal tissues (planar imaging) (HeLa): significantly stronger in the normal tissues
6 | N[C@@H](Cc1ccc(OCCC[18F])cc1)C(=O)O [L-[^18F]FPT, O—[^18F]Fluoropropyl-L-tyrosine, reference compound] |  | observed in the tumor | low in the normal tissues except for the pancreas and bone | specific to the tumor |  | 
7 | N[C@@H](Cc1ccc(OCC[18F])cc1)C(=O)O [L-[^18F]FET, O—[^18F]Fluoroethyl-L-tyrosine, reference compound] |  | observed in the tumor | low in the normal tissues except for the pancreas | specific to the tumor |  | 
8 | N[C@H](Cc1ccc(OCC[18F])cc1)C(=O)O [D-[^18F]FET, O—[^18F]fluoroethyl-D-tyrosine] |  | observed in the tumor | low in the normal tissues except for the pancreas | specific to the tumor; also recorded: particularly high specificity to the tumor | lower in the D-form than in the L-form | accumulation in tumor tissues (tumor tissues): does not accumulate in tumor tissues; SUV (organ: tumor)/SUV (blood), D-form compared with L-form [1]: higher value of SUV (organ: tumor)/SUV (blood) than the L-form; uptake to cancer cells (cancer cells): low uptake to cancer cells
9 | N[C@H](Cc1ccc(OC[18F])cc1)C(=O)O [D-[^18F]FMT, O—[^18F]fluoromethyl-D-tyrosine] | observed in the tumor site |  |  | particularly high specificity to the tumor |  | tumor-specific accumulation, D-form compared with L-form (planar imaging) (HeLa): accumulate in a manner specific to the tumor as compared with the L-form; difference in the degree of accumulation depending on the difference in proliferation rate [2, 3]: remarkably large as compared with L-[^18F]FMT; SUV (organ: tumor)/SUV (blood), D-form compared with L-form [1]: higher value of SUV (organ: tumor)/SUV (blood) than the L-form
10 | [11CH3]SCC[C@H](N)C(=O)O [L-[^11C]Met, L-[^11C]methionine, reference compound] | observed in the tumor site | observed in the tumor | also high in the normal tissues | low specificity to tumor |  | accumulation in the normal tissues (planar imaging) (HeLa): significantly stronger in the normal tissues; difference in the degree of accumulation depending on the difference in proliferation rate ([2]; mouse, in vivo): not detected
11 | C[11CH2]Oc1ccc(C[C@@H](N)C(=O)O)cc1 [D-[^11C]ET, O—[^11C]ethyl-D-tyrosine] |  | observed in the tumor | low in the normal tissues except for the pancreas | specific to the tumor | lower in the D-form than in the L-form | 
12 | N[C@@H](Cc1ccc(OC[18F])cc1)C(=O)O [L-[^18F]FMT, O—[^18F]fluoromethyl-L-tyrosine] | observed in the tumor site |  |  |  |  | 
13 | [11CH3]Oc1ccc(C[C@@H](N)C(=O)O)cc1 [D-[^11C]MT, O—[^11C]methyl-D-tyrosine] | observed in the tumor site | observed in the tumor | low in the normal tissues except for the pancreas | specific to the tumor | lower in the D-form than in the L-form | tumor-specific accumulation, D-form compared with L-form (planar imaging) (HeLa): accumulate in a manner specific to the tumor as compared with the L-form; accumulation in tumor, SUV (organ)/SUV (blood), HeLa-K versus HeLa-B ([2]; HeLa-K doubling time 4.4 days, HeLa-B 11.0 days, tail vein, 1 hour after administration): accumulated more in HeLa-K exhibiting faster proliferation; difference in the degree of accumulation depending on the difference in proliferation rate [2, 3]: remarkably large; SUV (organ: tumor)/SUV (blood), D-form compared with L-form [1]: higher value of SUV (organ: tumor)/SUV (blood) than the L-form
